“And” between values parts separate entries of the source, which are not always exact repeats. Identical values can stand only once. Blank lines part the entries; values can stand above or below the molecule they belong to.
Test system: 324938-238-R-J1-PDC complex spheroids viability
Assay: Anticancer human tumor 324938-238-R-J1-PDC patient-derived bladder carcinoma cell line growth inhibition [CLK]
Conditions: for viability, T/C: stronger effect = lower value
Excerpt: A high-throughput screen of multi-cell type tumor spheroids was designed to identify active combinations of […] and targeted small molecules. Complex spheroids include a stromal component modeled by human endothelial cells (HUVEC) and fibroblasts modeled by human mesenchymal stem cells (MSCs). The concentration ranges selected for each drug and investigational agent were based upon clinically achievable concentrations if the clinical Cmax of the agent was known.
Compounds. The drugs and investigational agents: cirtuvivint (SM08502; NSC835563), CC-671 (NSC850746), vemurafenib (NSC761431), tapotoclax (NSC804041), sotorasib (NSC818433), adagrasib (NSC831453), MRTX-1133 (NSC836407), BAY2416964 (NSC825713), copanlisib (NSC816437), inavolisib (NSC800729), abemaciclib (NSC768073), osimertinib (NSC779217), entinostat (NSC756642), eltanexor (KPT-8602, NSC794443), venetoclax (NSC766270), ceralasertib (NSC777638), bortezomib (NSC756655), olaparib (NSC753686), talazoparib (NSC767125), alisertib (NSC759677), peposertib (NSC802822), gemcitabine (NSC613327), 5-fluorouracil (NSC19893), SN-38 (NSC673596), oxaliplatin (NSC266046), paclitaxel (NSC125973), and doxorubicin (NSC123127), were obtained from the National Cancer Institute (NCI) Developmental Therapeutics Program Chemical Repository. The FDA-approved anticancer drug set is available from the Developmental Therapeutics Program at https://dtp.cancer.gov/organization/dscb/obtaining/available plates.htm. […] The stock solutions were prepared in dimethyl sulfoxide (DMSO, Sigma-Aldrich, St. Louis, MO, cat. D2650), except for the platinum complexes which were prepared in saline (Quality Biological, Gaithersburg, MD, cat. 114-055-101), at 800-fold the tested concentration and stored at -70 degrees C prior to their use. All drugs and investigational agents were tested over a range starting from a high concentration at or near the clinical Cmax and decreasing in half-log increments. If the clinical Cmax for an agent had not been determined, the highest concentration tested was 10 microM.
Cell Culture. All cells were maintained in an incubator at 37 degrees C and 5% CO2 with 95% humidity. The PDC lines were cultured according to standard operating procedures established by the NCI PDMR. Briefly, all PDCs were thawed and cultured in Matrigel-coated flasks prepared with a working solution of 1X Ham's F-12 nutrient mix, without supplementation (Invitrogen, Waltham, MA, cat. 11765054), 100 U/mL penicillin-streptomycin (Invitrogen, cat. 15140122), and 2.5% Matrigel (Corning Inc., Corning, NY, cat. 354248) for the first three passages. The 947758-054-R-J2-PDC line was cultured in 6B/Colon 1A media, which includes advanced DMEM/F-12 (Thermo Fisher Scientific, cat. 12634028), 10 mM HEPES (Thermo Fisher Scientific, cat. 15630080), 1X GlutaMAX supplement (Thermo Fisher Scientific, cat. 35050061), 0.1 mg/mL primocin (InvivoGen, cat. ant-pm-2), 10% defined fetal bovine serum, heat inactivated (HyClone Laboratories Inc., cat. SH30070.03HI), 1.25 mM N-Acetyl-L-cysteine (Sigma-Aldrich, cat. A9165), 10 mM nicotinamide (Sigma-Aldrich, cat. N0636), 1X B-27 supplement (Thermo Fisher Scientific, cat. 17504044), 1X N-2 supplement (Thermo Fisher Scientific, cat. 17502048), and 10 microM Y-27632 dihydrochloride (Tocris Bioscience, cat. 1254). The 876862-298-R-J1-PDC was cultured in 6E media, which includes all 6B/Colon 1A media components plus 50% L-WRN conditioned media (ATCC, cat. CRL-3276), 50 ng/mL recombinant human EGF recombinant protein (hEGF; Thermo Fisher Scientific, cat. PHG0311), 10 ng/mL recombinant human fibroblast growth factor 10 (hGFG-10; PeproTech, cat. 100-26), 1 ng/mL recombinant human fibroblast growth factor 2 (hFGF-2; PeproTech, cat. 100-18B), and 1 µM prostaglandin E2 (PGE2; Tocris, cat. 2296). The 227483-062-R1-J1-PDC line was cultured in Panc media, containing all 6E components except hFGF-2, with the addition of 500 nM SB-431542 (Selleckchem, cat. S1067) and 10 nM gastrin (Tocris, cat. 3006). […]

[1] = curve of first compound, second compound 0.0316 µM
[2] = curve of first compound, second compound 0.1 µM
[3] = curve of first compound, second compound 0.316 µM
[4] = curve of first compound, second compound 1 µM
[5] = curve of first compound, second compound 3.16 µM
[6] = curve of first compound, second compound 10 µM
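Further: viability read after seven days of drug exposure.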
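Wherever viability, T/C is given: 100% = DMSO vehicle control wells.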

SMILES: CCN1CCN(Cc2ccc(Nc3ncc(F)c(-c4cc(F)c5nc(C)n(C(C)C)c5c4)n3)nc2)CC1 + CN1CCN(c2cc(C(=O)Nc3cc4cc(-c5cnn(C)c5)ccc4cn3)ccn2)CC1
IC50 [1]: 64.8 nM
IC50 [2]: 5.84 nM
IC50 [3]: < 3.16 nM
IC50 [4]: < 3.16 nM
IC50 [5]: < 3.16 nM
IC50 [6]: < 3.16 nM
viability, T/C (second compound 0.0316 µM, first compound 0.00316 µM): 65%
viability, T/C (second compound 0.0316 µM, first compound 0.01 µM): 72.9%
viability, T/C (second compound 0.0316 µM, first compound 0.0316 µM): 56.3%
viability, T/C (second compound 0.0316 µM, first compound 0.1 µM): 46.5%
viability, T/C (second compound 0.0316 µM, first compound 0.316 µM): 34.2%
viability, T/C (second compound 0.0316 µM, first compound 1 µM): 35.5%
viability, T/C (second compound 0.1 µM, first compound 0.00316 µM): 53%
viability, T/C (second compound 0.1 µM, first compound 0.01 µM): 47.2%
viability, T/C (second compound 0.1 µM, first compound 0.0316 µM): 42.1%
viability, T/C (second compound 0.1 µM, first compound 0.1 µM): 42.3%
viability, T/C (second compound 0.1 µM, first compound 0.316 µM): 34.2%
viability, T/C (second compound 0.1 µM, first compound 1 µM): 31.3%
viability, T/C (second compound 0.316 µM, first compound 0.00316 µM): 23.8%
viability, T/C (second compound 0.316 µM, first compound 0.01 µM): 24.7%
viability, T/C (second compound 0.316 µM, first compound 0.0316 µM): 25%
viability, T/C (second compound 0.316 µM, first compound 0.1 µM): 25.1%
viability, T/C (second compound 0.316 µM, first compound 0.316 µM): 28.2%
viability, T/C (second compound 0.316 µM, first compound 1 µM): 31.1%
viability, T/C (second compound 1 µM, first compound 0.00316 µM): 1.45%
viability, T/C (second compound 1 µM, first compound 0.01 µM): 1.54%
viability, T/C (second compound 1 µM, first compound 0.0316 µM): 1.57%
viability, T/C (second compound 1 µM, first compound 0.1 µM): 2.36%
viability, T/C (second compound 1 µM, first compound 0.316 µM): 1.73%
viability, T/C (second compound 1 µM, first compound 1 µM): 0.69%
viability, T/C (second compound 3.16 µM, first compound 0.00316 µM): 0.12%
viability, T/C (second compound 3.16 µM, first compound 0.01 µM): 0.84%
viability, T/C (second compound 3.16 µM, first compound 0.0316 µM): 0.19%
viability, T/C (second compound 3.16 µM, first compound 0.1 µM): 0.14%
viability, T/C (second compound 3.16 µM, first compound 0.316 µM): 0.32%
viability, T/C (second compound 3.16 µM, first compound 1 µM): 0.84%
viability, T/C (second compound 10 µM, first compound 0.00316 µM): 0.09%
viability, T/C (second compound 10 µM, first compound 0.01 µM): 0.19%
viability, T/C (second compound 10 µM, first compound 0.0316 µM): 0.2%
viability, T/C (second compound 10 µM, first compound 0.1 µM): 0.11%
viability, T/C (second compound 10 µM, first compound 0.316 µM): 0.15%
viability, T/C (second compound 10 µM, first compound 1 µM): 0.2%

IC50 (curve of compound): 4350 nM and 4650 nM
SMILES: O=C(c1cc(Cc2n[nH]c(=O)c3ccccc23)ccc1F)N1CCN(C(=O)C2CC2)CC1
viability, T/C (compound 0.0316 µM): 73.8% and 84.1%
viability, T/C (compound 0.1 µM): 75.1% and 88.4%
viability, T/C (compound 0.316 µM): 71.4% and 72.4%
viability, T/C (compound 1 µM): 83.3% and 73.8%
viability, T/C (compound 3.16 µM): 57% and 60.5%
viability, T/C (compound 10 µM): 31.8% and 31.7%

SMILES: NC(=O)C(=Cn1cnc(-c2cc(C(F)(F)F)cc(C(F)(F)F)c2)n1)c1cncnc1 + CN1CCN(c2cc(C(=O)Nc3cc4cc(-c5cnn(C)c5)ccc4cn3)ccn2)CC1
IC50 [1]: 44.9 nM
IC50 [2]: < 9.49 nM
IC50 [3]: < 9.49 nM
IC50 [4]: < 9.49 nM
IC50 [5]: < 9.49 nM
IC50 [6]: < 9.49 nM
viability, T/C (second compound 0.0316 µM, first compound 0.00949 µM): 73.6%
viability, T/C (second compound 0.0316 µM, first compound 0.03 µM): 56.1%
viability, T/C (second compound 0.0316 µM, first compound 0.0949 µM): 37.3%
viability, T/C (second compound 0.0316 µM, first compound 0.3 µM): 11.8%
viability, T/C (second compound 0.0316 µM, first compound 0.949 µM): 4.81%
viability, T/C (second compound 0.0316 µM, first compound 3 µM): 2.71%
viability, T/C (second compound 0.1 µM, first compound 0.00949 µM): 47.5%
viability, T/C (second compound 0.1 µM, first compound 0.03 µM): 37.8%
viability, T/C (second compound 0.1 µM, first compound 0.0949 µM): 26%
viability, T/C (second compound 0.1 µM, first compound 0.3 µM): 8.9%
viability, T/C (second compound 0.1 µM, first compound 0.949 µM): 3.44%
viability, T/C (second compound 0.1 µM, first compound 3 µM): 1.05%
viability, T/C (second compound 0.316 µM, first compound 0.00949 µM): 21.6%
viability, T/C (second compound 0.316 µM, first compound 0.03 µM): 13.4%
viability, T/C (second compound 0.316 µM, first compound 0.0949 µM): 11.1%
viability, T/C (second compound 0.316 µM, first compound 0.3 µM): 1.12%
viability, T/C (second compound 0.316 µM, first compound 0.949 µM): 0.14%
viability, T/C (second compound 0.316 µM, first compound 3 µM): 0.06%
viability, T/C (second compound 1 µM, first compound 0.00949 µM): 0.21%
viability, T/C (second compound 1 µM, first compound 0.03 µM): 0.17%
viability, T/C (second compound 1 µM, first compound 0.0949 µM): 0.15%
viability, T/C (second compound 1 µM, first compound 0.3 µM): 0.09%
viability, T/C (second compound 1 µM, first compound 0.949 µM): 0.08%
viability, T/C (second compound 1 µM, first compound 3 µM): 0.09%
viability, T/C (second compound 3.16 µM, first compound 0.00949 µM): 0.09%
viability, T/C (second compound 3.16 µM, first compound 0.03 µM): 0.13%
viability, T/C (second compound 3.16 µM, first compound 0.0949 µM): 0.16%
viability, T/C (second compound 3.16 µM, first compound 0.3 µM): 0.12%
viability, T/C (second compound 3.16 µM, first compound 0.949 µM): 0.12%
viability, T/C (second compound 3.16 µM, first compound 3 µM): 0.11%
viability, T/C (second compound 10 µM, first compound 0.00949 µM): 0.07%
viability, T/C (second compound 10 µM, first compound 0.03 µM): 0.12%
viability, T/C (second compound 10 µM, first compound 0.0949 µM): 0.23%
viability, T/C (second compound 10 µM, first compound 0.3 µM): 0.16%
viability, T/C (second compound 10 µM, first compound 0.949 µM): 0.18%
viability, T/C (second compound 10 µM, first compound 3 µM): 0.21%

IC50 (curve of compound): 91 nM and 128 nM
SMILES: CC(Nc1ccc2c(c1)OCCn1cc(N3C(=O)OCC3C(F)F)nc1-2)C(N)=O (stereo not drawn)
viability, T/C (compound 0.0316 µM): 67.9% and 69%
viability, T/C (compound 0.1 µM): 49.2% and 55%
viability, T/C (compound 0.316 µM): 32% and 34.8%
viability, T/C (compound 1 µM): 25% and 29.9%
viability, T/C (compound 3.16 µM): 20.4% and 24.6%
viability, T/C (compound 10 µM): 10.8% and 12.4%
